Consider 9 compounds from the supplement of paper PMC4862054.

Values joined by “and” are separate entries in the source; they are usually repeats but may differ in a detail not shown here. Identical values can stand only once.

Common to all, as to details: incubation time: 72 h
For assay [1], the system named is DU-4475. As to the kind of experiment: normalised viability (% of control), CellTiter-Blue; higher = more viable cells (100 = DMSO, 0 = benzethonium chloride kill control). The method, then:
(§1)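 DSRT, CellTiter-Blue viability, 72 h incubation. Signal is normalised to DMSO and benzethonium chloride controls. Value is the normalised response at dose 1.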
For orientation: Resazurin is reduced to fluorescent resorufin, in cell work by metabolically active cells.

The subject of assay [2] is CAL-85-1. The description is as above. The method, then:
as §1

The test system of assay [3] is Hs578T. The assay is described as above. The method, then: as §1
Assay [4] has as its system CAL-148. Described as above. The method, then:
as §1

Assay [5] relates to MDA-MB-453. The assay is described as above. On the procedure:
as §1

Assay [6] has as its system BT-474. The description is as above. The method, then: as §1
The subject of assay [7] is BT-549. The assay is described as above. The method, then: as §1
The test system of assay [8] is MDA-MB-231. The assay is described as above. The method, then:
as §1

Assay [9] deals with HCC1143. Described as above. On the procedure: as §1
Assay [10] deals with MDA-MB-436. Described as above. The method, then: as §1
In assay [11] the test system is HCC1937. The assay is described as above. On the procedure:
as §1

Assay [12] deals with MDA-MB-468. The description is as above. The method, then: as §1
The subject of assay [13] is CAL-51. Described as above. On the procedure: as §1
Assay [14] concerns MFM-223. The assay is described as above. The method, then:
as §1

For assay [15], the system named is HCC1599. The description is as above. The method, then:
as §1

Assay [16] has as its system CAL-120. The assay is described as above. The method, then: as §1
Assay [17] has as its system HDQ-P1. The description is as above. The method, then:
as §1

The test system of assay [18] is SK-BR-3. The description is as above. The method, then: as §1
For assay [19], the system named is DU-4475. The assay can be described thus: normalised viability (% of control), CellTiter-Blue; higher = more viable cells (about 100 = DMSO control). On the procedure:
(§2)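 DSRT, CellTiter-Blue viability, 72 h incubation. Signal is normalised to DMSO and benzethonium chloride controls. Value is the normalised response at dose 8.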

Assay [20] deals with CAL-85-1. The description is as above. The method, then: as §2
Assay [21] relates to CAL-148. The description is as above. On the procedure: as §2
Assay [22] relates to MDA-MB-453. Described as above. On the procedure: as §2
Assay [23] deals with CAL-51. Described as above. The method, then:
as §2

Assay [24] has as its system HDQ-P1. The description is as above. On the procedure: as §2

`C=CCN(/C=C1/C(=O)O[C@H](COC)[C@@]2(C)C1=C(O)C(=O)C1=C2[C@H](OC(C)=O)C[C@]2(C)C(=O)CC[C@@H]12)CC=C` [PX-866] (1 nM): the normalised viability in assay [1] was found to be 118%; in assay [2], 97%; in assay [3], 98.6%; in [4], 114%; in assay [5], 101%; in [6] it was 102%. The normalised viability in assay [7] turned out to be 105%; in assay [8], 97.6%; in [9], 99.8%; in [10], 94.8%; in assay [11], 83.9%; in assay [12] it was 96.6%. Also, the normalised viability in assay [13] amounted to 112%; in assay [14], 87.4%; in [15], 104%; in [16], 97.7%; in assay [17], 107%; in assay [18], 96.3%.

As for `CC[C@H](CO)Nc1nc(NCc2ccccc2)c2ncn(C(C)C)c2n1` [Roscovitine] (1 nM), the normalised viability in assay [1] turned out to be 103%; in assay [2], 82.8%; in assay [3], 96.3%; in assay [4], 87.1%; in assay [5] it was 104%; in assay [6] it was 91%. The normalised viability was determined as 105% in assay [7]; 110% in assay [8]; 95.5% in assay [9]; 114% in assay [10]; 81.3% in assay [11]; 93.7% in assay [12]. Besides, the normalised viability came to 101% in assay [13]; 96.5% in [14]; 101% in [15]; 83.7% in assay [16]; 83.1% in assay [17]; 92.9% in assay [18].

Take `COc1c2occc2cc2ccc(=O)oc12` [Methoxsalen] (3000 nM): the normalised viability in assay [19] was 94.6%; in assay [20] it was 96.2%; in assay [21] it was 91.4%; in assay [22], 114%; in assay [23], 112%; in assay [24], 118%.

Take `CC[C@H](CO)Nc1nc(NCc2ccccc2)c2ncn(C(C)C)c2n1` [Roscovitine] (3000 nM): the normalised viability in [19] is 114%; in assay [20], 82.6%; in assay [21], 80.4%; in assay [22], 86.5%; in assay [23], 107%; in assay [24] it was 91%.

In the case of `C=CCN(/C=C1/C(=O)O[C@H](COC)[C@@]2(C)C1=C(O)C(=O)C1=C2[C@H](OC(C)=O)C[C@]2(C)C(=O)CC[C@@H]12)CC=C` [PX-866] (3000 nM), the normalised viability was 95.4% in [19]; 102% in assay [20]; 108% in assay [21]; 114% in assay [22]; 107% in assay [23]; 70.2% in assay [24].

In the case of `CN(Cc1cnc2nc(N)nc(N)c2n1)c1ccc(C(=O)N[C@@H](CCC(=O)O)C(=O)O)cc1` [Methotrexate] (1 nM), the normalised viability in assay [1] worked out at 114%; in [2] it was 95.9%; in assay [3] it was 130%; in [4], 110%; in assay [5], 101%; in assay [6], 101%. The normalised viability amounted to 92.2% in assay [7]; 93.5% in assay [8]; 95.6% in [9]; 109% in assay [10]; 84.6% in assay [11]; 93% in assay [12]. In addition, the normalised viability in [13] was 106%; in [14] it was 99.9%; in assay [15], 93.6%; in assay [16], 90.5%; in assay [17] it was 114%; in [18], 88.7%.

Take `Cc1cn(-c2cc(NC(=O)c3ccc(C)c(Nc4nccc(-c5cccnc5)n4)c3)cc(C(F)(F)F)c2)cn1` [Nilotinib] (3000 nM): the normalised viability is 97.8% and 107% in assay [19]; 69.3% and 78.6% in assay [20]; 83.9% and 89.2% in [21]; 87.6% and 97.1% in assay [22]; 108% and 115% in [23]; 67.9% and 66.5% in [24].

Consider `CC(C)(C)NC(=O)[C@H]1CC[C@H]2[C@@H]3CC[C@H]4NC(=O)C=C[C@]4(C)[C@H]3CC[C@]12C` [Finasteride] (3000 nM), for which the normalised viability in assay [19] is 97%; in [20] it was 92.2%; in [21], 96.4%; in assay [22] it was 114%; in [23], 104%; in assay [24] it was 127%.

As to `CC(C)C[C@H](NC(=O)[C@@H](COC(C)(C)C)NC(=O)[C@H](Cc1ccc(O)cc1)NC(=O)[C@H](CO)NC(=O)[C@H](Cc1c[nH]c2ccccc12)NC(=O)[C@H](Cc1cnc[nH]1)NC(=O)[C@@H]1CCC(=O)N1)C(=O)N[C@@H](CCCNC(=N)N)C(=O)N1CCC[C@H]1C(=O)NNC(N)=O` [Goserelin] (3000 nM), the normalised viability in assay [19] is 92.5%; in [20] it was 103%; in assay [21], 99.8%; in assay [22], 122%; in assay [23], 108%; in assay [24] it was 106%.
